Legend:
PTP1B [1] = target: T1, PTP1B (Homo sapiens, UniProt P18031); assay: PTP1B inhibition assay (pNPP colorimetric method); type: biochemical; parameters: purchased Abcam (Shanghai) Trading Co., Ltd. ab51277; settings: for IC50: pNPP substrate, 37 °C 30 min, means ± SD of three replications; for PTP1B inhibitory activity (in words): pNPP method, compared with positive control NaVO4
T1 sequence (P18031 1-435): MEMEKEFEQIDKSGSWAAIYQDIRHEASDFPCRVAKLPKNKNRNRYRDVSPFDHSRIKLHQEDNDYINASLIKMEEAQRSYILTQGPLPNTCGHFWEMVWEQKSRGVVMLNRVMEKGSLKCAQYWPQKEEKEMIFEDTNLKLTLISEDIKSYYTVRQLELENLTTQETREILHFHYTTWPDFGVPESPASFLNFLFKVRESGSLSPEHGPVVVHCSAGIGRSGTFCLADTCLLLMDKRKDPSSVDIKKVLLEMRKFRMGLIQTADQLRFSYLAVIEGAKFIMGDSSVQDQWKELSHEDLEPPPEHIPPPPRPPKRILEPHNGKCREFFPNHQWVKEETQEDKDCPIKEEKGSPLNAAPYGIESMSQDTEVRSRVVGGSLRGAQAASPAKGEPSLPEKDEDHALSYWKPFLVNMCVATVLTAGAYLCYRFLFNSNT
Protocol: In the separation process, the column chromatography as performed by silica-gel (100–200 and 300–400 mesh, Qingdao Marine Chemical Co., Qingdao, China), and Sephadex LH-20 (GE Healthcare, Marlborough, MA). The TLC detection was carried by heating a silica gel plate (Qingdao Marine Chemical Co., Qingdao, China) spayed with 10% H2SO4 in ethanol. The 1D and 2D NMR spectra were recorded on a Varian INOVA AS 400 instrument (Agilent, Santa Clara, USA) with TMS as the internal standard. The chemical shift was shown in ppm while coupling constant J in Hz. Deuterated solvent ([…]) was purchased from Sigma Aldrich for NMR analysis. HR-ESI-MS data were collected by a UPLC–Q/TOF-MS system including a 1290 Infinity II UPLC system (Agilent, USA) and an Agilent 6545 Q/TOF-MS system (Agilent, MA, USA). Optical rotations were measured by a JASCO P-1020 polarimeter (Kyoto, Japan). The single crystal X-ray diffraction data were obtained by a SuperNova, Dual, Cu at zero, AtlasS2 diffractometer (Rigaku, Japan). Besides, other analytical grade chemical solvent was obtained from Jinhuada Chemical Co., ltd. Guangzhou, P.R. China. Recombinant human PTP1B protein (ab51277) was purchased from Abcam (Shanghai) Trading Co., Ltd. All chemical reagents used in the enzymatic assays were produced by Laibo Chemicals Industries, Ltd.
The enzymatic assays of protein tyrosine phosphatase 1B (PTP1B) were referred. The PTP1B inhibitory activities of test compounds were examined in 96-well plates using the colorimetric method. […] The reaction system was 100 μL: MOPS (25 mM, pH = 7.0), DTT (2 mM), EDTA (1 mM, pH = 7.0), NaCl (0.1 M), PTP 1B (25 nM), and disodium-4-nitrophenyl phosphate (pNPP, 2 mM), and the enzyme-catalysed reaction was terminated by the addition of 1.0 M NaOH after incubation at 37 °C for 30 min. The inhibition efficiency of the compounds on the enzymatic activity of PTP1B was assayed by detecting the amount of the hydrolysed product, p-nitrophenol (p-NP) at 405 nm using a microplate reader. The PTP1B inhibition activity was expressed as inhibition (%) and was calculated as Equation (1): (1) Inhibition (%)=(1−ΔAsample/ΔAcontrol)×100%

PTP1B [2] = target: T1, PTP1B; assay: PTP1B inhibition kinetic assay (Lineweaver-Burk and Dixon plots); type: biochemical; settings: for Ki: Dixon plot method, means ± SD of three replications; for type of inhibition against PTP1B: Lineweaver-Burk double reciprocal plot
Protocol: The kinetic behaviour of the active compounds against PTP1B and the corresponding inhibition constants (Ki values) were investigated using Lineweaver-Burk double reciprocal plots and Dixon plots. Different concentrations of p-NPP substrates (1, 2, 5 and 10 mM) were subjected to enzymatic reactions with various concentrations of active compounds (0, 0.5, 1.0 and 5.0 μM for 18) and 100 nM PTP1B in 96-well plates. The absorbance of the reaction mixture was recorded every 3 min by a plate reader. The enzymatic velocity of the enzyme reaction was calculated based on the time-Δabs plot. All assays were performed in triplicate.

IC50 (PTP1B [1]) | Compound | PTP1B inhibitory activity (in words) (PTP1B [1]) | Ki (PTP1B [2]) | type of inhibition against PTP1B (PTP1B [2])
20.3 ± 2.49 µM | CC1(C)CCC=C(C(=O)C2CCC3(C)C2CCC2C4=C(CCC23C)C(C)(C)C2CCC4O2)O1 (stereo not shown) [Compound 1, Gypensapogenin I] | – | – | –
33.9 ± 0.83 µM | CC(C)=CC(=O)CC(C(=O)O)[C@H]1CC[C@]2(C)[C@@H]1CCC1[C@@]3(C)CC[C@H](O)C(C)(C)C3CC[C@]12C (stereo partly shown) [Compound 5, Gypensapogenin V] | – | – | –
19.6 ± 1.48 µM | CC(C)=C1CC=C([C@H]2CC[C@]3(C)[C@@H]2CC[C@@H]2C4=C(CC[C@]23C)C(C)(C)[C@@H]2CC[C@H]4O2)C1=O [Compound 6, Gypensapogenin A] | – | – | –
29.4 ± 2.48 µM | CC(C)=C1CC([C@H]2CC[C@]3(C)[C@@H]2CC[C@@H]2C4=C(CC[C@]23C)C(C)(C)[C@@H]2CC[C@H]4O2)=CC1=O [Compound 7, Gypensapogenin B] | – | – | –
24.6 ± 2.28 µM | CC(C)=C1CC=C([C@H]2CC[C@]3(C)[C@@H]2CC[C@@H]2[C@@]4(C)CC[C@H](O)C(C)(C)[C@@H]4CC[C@]23C)C1=O [Compound 8, Gypensapogenin C] | – | – | –

Second part, the molecule before the results:

Compound | IC50 (PTP1B [1]) | PTP1B inhibitory activity (in words) (PTP1B [1]) | Ki (PTP1B [2]) | type of inhibition against PTP1B (PTP1B [2])
CC(C)=C1CC([C@H]2CC[C@]3(C)[C@@H]2CCC2[C@@]4(C)CC[C@H](O)C(C)(C)C4CC[C@]23C)=CC1=O (stereo partly shown) [Compound 2, Gypensapogenin II] | 10.5 ± 1.07 µM | more inhibitory activity against PTP1B than the positive control | – | –
CC(C)=CCC[C@@](O)(C(=O)O)[C@H]1CC[C@]2(C)[C@@H]1CCC1[C@@]3(C)CC[C@H](O)C(C)(C)C3CC[C@]12C (stereo partly shown) [Compound 3, Gypensapogenin III] | 2.34 ± 0.24 µM | more inhibitory activity against PTP1B than the positive control | 1.16 ± 0.47 µM | competitive inhibitors
CC(C)(O)CC(=O)CC(C(=O)O)[C@H]1CC[C@]2(C)[C@@H]1CCC1[C@@]3(C)CC[C@H](O)C(C)(C)C3CC[C@]12C (stereo partly shown) [Compound 4, Gypensapogenin IV] | 4.26 ± 0.42 µM | more inhibitory activity against PTP1B than the positive control | 2.44 ± 0.09 µM | competitive inhibitors
CC(C)=C[C@H]1C=C([C@H]2CC[C@]3(C)[C@@H]2CC[C@@H]2[C@@]4(C)CC[C@H](O)C(C)(C)[C@@H]4CC[C@]23C)C(=O)O1 [Compound 9, Gypensapogenin D] | 7.77 ± 0.85 µM | more inhibitory activity against PTP1B than the positive control | 5.58 ± 0.7 µM | competitive inhibitors

From article PMC10653776, “New dammarane-type triterpenoids from hydrolyzate of total Gynostemma pentaphyllum saponins with protein tyrosine phosphatase 1B inhibitory activity” (Journal of Enzyme Inhibition and Medicinal Chemistry, 2023)
